What all share (format): cell-based
For data set [1], the target named is T1, Glucocorticoid receptor (Homo sapiens, UniProt P04150).
T1 sequence (P04150 whole entry): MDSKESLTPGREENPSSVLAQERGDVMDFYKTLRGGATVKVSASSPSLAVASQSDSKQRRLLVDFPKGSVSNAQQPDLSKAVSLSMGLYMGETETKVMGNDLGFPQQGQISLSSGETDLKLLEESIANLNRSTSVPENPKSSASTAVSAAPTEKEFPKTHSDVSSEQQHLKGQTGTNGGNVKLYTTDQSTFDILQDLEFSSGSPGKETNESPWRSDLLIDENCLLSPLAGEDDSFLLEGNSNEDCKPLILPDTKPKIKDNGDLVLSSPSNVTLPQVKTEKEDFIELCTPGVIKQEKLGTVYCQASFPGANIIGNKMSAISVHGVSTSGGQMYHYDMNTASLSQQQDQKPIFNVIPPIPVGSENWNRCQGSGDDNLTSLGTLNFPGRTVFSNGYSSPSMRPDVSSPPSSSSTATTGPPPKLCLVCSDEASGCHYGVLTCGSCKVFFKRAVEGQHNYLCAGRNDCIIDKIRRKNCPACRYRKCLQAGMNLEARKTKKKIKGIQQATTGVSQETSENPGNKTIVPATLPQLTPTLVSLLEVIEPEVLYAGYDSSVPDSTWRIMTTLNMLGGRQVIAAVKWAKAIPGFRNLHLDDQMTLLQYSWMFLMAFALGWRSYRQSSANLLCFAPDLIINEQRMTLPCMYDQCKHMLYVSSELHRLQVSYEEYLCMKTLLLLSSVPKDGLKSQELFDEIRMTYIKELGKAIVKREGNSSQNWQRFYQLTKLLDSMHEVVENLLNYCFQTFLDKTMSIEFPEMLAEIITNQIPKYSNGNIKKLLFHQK
In words: Transactivation of human GRalpha expressed in HEK293 cells after 24 hrs by luciferase reporter gene assay. Particulars: hek293, 24 h.

For data set [2], the target named is T1, Glucocorticoid receptor. Nature of the data set: (§1) Antagonist activity at human GRalpha expressed in HEK293 cells assessed as inhibition of dexamethasone-induced response after 24 hrs by luciferase reporter gene assay.
Data set [3] addresses T2, Glucocorticoid receptor (Homo sapiens) (UniProt P04150).
T2 sequence (whole entry): T1 sequence (P04150 whole entry)
Nature of the data set: Antagonist activity at human GRalpha expressed in HEK293 cells assessed as inhibition of dexamethasone-induced response at 30 uM after 24 hrs by luciferase reporter gene assay relative to control.

The target in data set [4] is T2, Glucocorticoid receptor (Homo sapiens). In words: Transrepression of human GRalpha expressed in HEK293 cells co-expressing pGL4.32 assessed as inhibition of TNFalpha-stimulated NF-kB activity at 30 uM preincubated for 4 hrs followed by TNFalpha addition measured after 3 hrs by luciferase reporter gene assay relative to control.
For data set [5] the target is unchanged. The data set is described as §1.

Active and inactive are the calls of the source. No cut-off for these calls is given here.

On to `O=S(=O)(c1ccc(Br)cc1)N(Cc1ccccc1)c1ccc(Oc2ccccc2)cc1`, for which, at Glucocorticoid receptor [1], the Activity entry is listed as “Not Active”. Also, the IC50 on Glucocorticoid receptor [2] is more than 30 µM. Also, the inhibition in data set [3] is less than 50%.
As to `COC(=O)Nc1ccc(S(=O)(=O)N(Cc2ccccc2)c2ccc(Oc3ccccc3)cc2)cc1`, the inhibition in data set [4] came out at 32%. In addition, the Activity entry at Glucocorticoid receptor [1] was “Not Active”. For the same compound, the IC50 on Glucocorticoid receptor [2] amounted to 2.11 µM.
For the compound `O=S(=O)(c1ccc(C(F)(F)F)cc1)N(Cc1ccccc1)c1ccc(Oc2ccccc2)cc1`, the Activity entry at Glucocorticoid receptor [1] is reported as “Not Active”. The IC50 on Glucocorticoid receptor [2] was more than 30 µM. The inhibition in data set [3] is less than 50%.
`N#Cc1ccc(S(=O)(=O)N(CCCc2ccccc2)c2ccc(Oc3ccccc3)cc2)cc1`: the Activity result at Glucocorticoid receptor [1] was “Not Active”. Besides, the concentration for half-maximal inhibition (IC50) on Glucocorticoid receptor [2] was more than 30 µM. In data set [3], the inhibition is less than 50%.
Turning to `N#Cc1ccc(S(=O)(=O)N(CCc2ccccc2)c2ccc(Oc3ccccc3)cc2)cc1`, the Activity entry on Glucocorticoid receptor [1] was “Not Active”. In addition, at Glucocorticoid receptor [2], the half-maximal inhibitory concentration (IC50) was more than 30 µM. Also, the inhibition in data set [3] was less than 50%.
Consider `CC(C)(C)c1ccc(S(=O)(=O)N(Cc2ccccc2)c2ccc(Oc3ccccc3)cc2)cc1`, for which the Activity entry at Glucocorticoid receptor [1] is recorded as “Not Active”. At Glucocorticoid receptor [2], the concentration for half-maximal inhibition (IC50) is more than 30 µM. For the same compound, in data set [3], the inhibition is less than 50%.
`Nc1cccc(S(=O)(=O)N(Cc2ccccc2)c2ccc(Oc3ccccc3)cc2)c1`: the inhibition in data set [4] is 39%. The Activity result at Glucocorticoid receptor [1] was “Not Active”.
As to `O=S(=O)(c1ccc(Cl)cc1)N(Cc1ccccc1)c1ccc(Oc2ccccc2)cc1`, the Activity entry on Glucocorticoid receptor [1] is listed as “Not Active”. For the same compound, the IC50 on Glucocorticoid receptor [2] stood at 2.4 µM.
As to `CC(=O)Nc1ccc(S(=O)(=O)N(Cc2ccccc2)c2ccc(Oc3ccccc3)cc2)cc1`, the inhibition in data set [4] amounted to 60%. For the same compound, the Activity entry on Glucocorticoid receptor [1] was “Not Active”. The IC50 on Glucocorticoid receptor [2] was 1.97 µM.
Turning to `N#Cc1ccc(S(=O)(=O)N(Cc2ccc(Cl)cc2)c2ccc(Oc3ccccc3)cc2)cc1`, at Glucocorticoid receptor [1], the Activity result is on record as “Not Active”. Further, the IC50 at Glucocorticoid receptor [2] was more than 30 µM. Also, the inhibition in data set [3] is less than 50%.
For `COc1ccc(Oc2ccc(N(Cc3ccccc3)S(=O)(=O)c3ccc(C#N)cc3)cc2)cc1`, the Activity result on Glucocorticoid receptor [1] was “Not Active”. Moreover, the IC50 at Glucocorticoid receptor [2] is more than 30 µM. The inhibition in data set [3] was less than 50%.
Consider `Cc1ccc(S(=O)(=O)N(Cc2ccccc2)c2ccc(Oc3ccccc3)cc2)cc1`, for which the Activity entry at Glucocorticoid receptor [1] was “Not Active”. Further, the half-maximal inhibitory concentration (IC50) at Glucocorticoid receptor [2] was 2.02 µM.
As to `N#Cc1ccc(S(=O)(=O)N(Cc2cccc3ccccc23)c2ccc(Oc3ccccc3)cc2)cc1`, on Glucocorticoid receptor [1], the Activity result was “Not Active”. The concentration for half-maximal inhibition (IC50) on Glucocorticoid receptor [2] is more than 30 µM. Also, the inhibition in data set [3] was less than 50%.
With `CCN(CC)c1ccc(S(=O)(=O)N(Cc2ccccc2)c2ccc(Oc3ccccc3)cc2)cc1`, in data set [4], the inhibition result is “inactive”. Moreover, the Activity result at Glucocorticoid receptor [1] is on record as “Not Active”.
As to `COc1ccc(CN(c2ccc(Oc3ccccc3)cc2)S(=O)(=O)c2ccc(C#N)cc2)cc1`, the Activity result on Glucocorticoid receptor [1] was “Not Active”. Besides, the inhibition entry in data set [3] is “inactive”.
Turning to `O=[N+]([O-])c1ccc(S(=O)(=O)N(Cc2ccccc2)c2ccc(Oc3ccccc3)cc2)cc1`, the Activity result on Glucocorticoid receptor [1] is on record as “Not Active”. Moreover, on Glucocorticoid receptor [2], the IC50 is 5.77 µM.
For `O=S(=O)(c1ccc(F)cc1)N(Cc1ccccc1)c1ccc(Oc2ccccc2)cc1` the same measures were “Not Active” and 2.04 µM.
On to `N#Cc1ccc(S(=O)(=O)N(CC2CC2)c2ccc(Oc3ccccc3)cc2)cc1`, for which the Activity result at Glucocorticoid receptor [1] is on record as “Not Active”. In addition, the inhibition result in data set [3] is “inactive”.
`N#Cc1ccc(S(=O)(=O)N(Cc2cccc(Cl)c2)c2ccc(Oc3ccccc3)cc2)cc1`: on Glucocorticoid receptor [1], the Activity entry is listed as “Not Active”. Moreover, the IC50 on Glucocorticoid receptor [2] is 5.42 µM.
For `COc1ccc(S(=O)(=O)N(Cc2ccccc2)c2ccc(Oc3ccccc3)cc2)cc1` the same measures were “Not Active” and 1.87 µM.
Turning to `O=S(=O)(Nc1ccc(Oc2ccccc2)cc1)c1cccc(C(F)(F)F)c1`, at Glucocorticoid receptor [1], the Activity result is “Not Active”. Moreover, at Glucocorticoid receptor [2], the IC50 worked out at 11.7 µM.
Regarding `N#Cc1cccc(S(=O)(=O)N(Cc2ccccc2)c2ccc(Oc3ccccc3)cc2)c1`, the Activity result on Glucocorticoid receptor [1] was “Not Active”. Besides, the inhibition result in data set [3] was “inactive”.
For the compound `Nc1ccccc1S(=O)(=O)N(Cc1ccccc1)c1ccc(Oc2ccccc2)cc1`, the inhibition in data set [4] amounted to 46%. Further, the Activity entry on Glucocorticoid receptor [1] was “Not Active”.
In the case of `COc1cccc(Oc2ccc(N(Cc3ccccc3)S(=O)(=O)c3ccc(C#N)cc3)cc2)c1`, on Glucocorticoid receptor [1], the Activity entry was “Not Active”. Further, in data set [3], the inhibition entry is “inactive”.
For the compound `Cc1ccc(CN(c2ccc(Oc3ccccc3)cc2)S(=O)(=O)c2ccc(C#N)cc2)cc1`, the Activity entry at Glucocorticoid receptor [1] was “Not Active”. Moreover, the 50% inhibitory concentration (IC50) on Glucocorticoid receptor [2] was more than 30 µM. Further, the inhibition in data set [3] is less than 50%.
With `N#Cc1ccc(S(=O)(=O)N(Cc2ccc(Br)cc2)c2ccc(Oc3ccccc3)cc2)cc1`, on Glucocorticoid receptor [1], the Activity result was “Not Active”. For the same compound, the IC50 on Glucocorticoid receptor [2] was 7.87 µM.
With `CNc1ccc(S(=O)(=O)N(Cc2ccccc2)c2ccc(Oc3ccccc3)cc2)cc1`, the inhibition entry in data set [4] was “inactive”. Further, the Activity result at Glucocorticoid receptor [1] was “Not Active”.
`N#Cc1ccc(S(=O)(=O)N(Cc2ccccc2Cl)c2ccc(Oc3ccccc3)cc2)cc1`: the Activity entry on Glucocorticoid receptor [1] is reported as “Not Active”. Also, the concentration for half-maximal inhibition (IC50) on Glucocorticoid receptor [2] is more than 30 µM.
For the compound `CCNc1ccc(S(=O)(=O)N(Cc2ccccc2)c2ccc(Oc3ccccc3)cc2)cc1`, the inhibition result in data set [4] is “inactive”. Moreover, the Activity entry on Glucocorticoid receptor [1] is on record as “Not Active”.
Consider `Nc1ccc(S(=O)(=O)N(Cc2ccccc2)c2ccc(Oc3ccccc3)cc2)cc1`, for which, in data set [4], the inhibition came to 64%. For the same compound, the Activity entry on Glucocorticoid receptor [1] is listed as “Not Active”. Further, the IC50 at Glucocorticoid receptor [2] turned out to be 3.15 µM.
Consider `COc1ccccc1Oc1ccc(N(Cc2ccccc2)S(=O)(=O)c2ccc(C#N)cc2)cc1`, for which the Activity result at Glucocorticoid receptor [1] was “Not Active”. Besides, in data set [3], the inhibition entry was “inactive”.
Regarding `N#Cc1ccc(S(=O)(=O)N(Cc2ccc3ccccc3c2)c2ccc(Oc3ccccc3)cc2)cc1`, the Activity result at Glucocorticoid receptor [1] is “Not Active”. On Glucocorticoid receptor [2], the IC50 is more than 30 µM. Besides, the inhibition in data set [3] was less than 50%.
As to `O=S(=O)(c1ccccc1)N(Cc1ccccc1)c1ccc(Oc2ccccc2)cc1`, at Glucocorticoid receptor [1], the Activity entry was “Not Active”. On Glucocorticoid receptor [2], the IC50 came to 3.59 µM.
In the case of `O=S(=O)(c1ccc(OC(F)(F)F)cc1)N(Cc1ccccc1)c1ccc(Oc2ccccc2)cc1`, the Activity entry on Glucocorticoid receptor [1] is recorded as “Not Active”. In addition, on Glucocorticoid receptor [2], the IC50 stood at 7.48 µM.
For the compound `N#Cc1ccccc1S(=O)(=O)N(Cc1ccccc1)c1ccc(Oc2ccccc2)cc1`, the Activity result on Glucocorticoid receptor [1] is recorded as “Not Active”. Besides, at Glucocorticoid receptor [2], the IC50 is more than 30 µM. Besides, the inhibition in data set [3] is less than 50%.
Take `N#Cc1ccc(S(=O)(=O)N(Cc2ccc(F)cc2)c2ccc(Oc3ccccc3)cc2)cc1`: the Activity entry on Glucocorticoid receptor [1] was “Not Active”. For the same compound, on Glucocorticoid receptor [2], the IC50 is more than 30 µM. Further, in data set [3], the inhibition is less than 50%.
For the compound `CC(C)(C)c1ccc(CN(c2ccc(Oc3ccccc3)cc2)S(=O)(=O)c2ccc(C#N)cc2)cc1`, the Activity entry on Glucocorticoid receptor [1] is “Not Active”. The inhibition entry in data set [3] is “inactive”.
For the compound `CN(C)c1ccc(S(=O)(=O)N(Cc2ccccc2)c2ccc(Oc3ccccc3)cc2)cc1`, the inhibition entry in data set [4] is “inactive”. In addition, the Activity entry on Glucocorticoid receptor [1] is given as “Not Active”.
Take `O=S(=O)(c1ccc(S(F)(F)(F)(F)F)cc1)N(Cc1ccccc1)c1ccc(Oc2ccccc2)cc1`: the Activity result at Glucocorticoid receptor [1] is “Not Active”. The IC50 on Glucocorticoid receptor [2] is more than 30 µM. Also, in data set [3], the inhibition is less than 50%.
`COc1cccc(C(=O)Nc2ccc(Oc3ccc(O)cc3)c(C)c2)c1`: the Activity entry on Glucocorticoid receptor [1] is recorded as “Not Active”. In addition, the inhibition result in data set [5] is “inactive”.
